Data: ChEMBL document CHEMBL3124753, “Synthesis of 2-amino-3-cyano-4H-chromen-4-ylphosphonates and their anticancer properties” (2014)

Columns and labels:
Format in all cases: functional
KB [1] = assay: Growth inhibition of human KB cells at 40 uM after 24 hrs by MTT assay relative to control; conditions: read-out: GI
KB [2] = assay: Growth inhibition of human KB cells at 4 uM after 24 hrs by MTT assay relative to control; conditions: read-out: GI
KB [3] = assay: Growth inhibition of human KB cells at 20 uM after 24 hrs by MTT assay relative to control; conditions: read-out: GI
KB [4] = assay: Growth inhibition of human KB cells at 2 uM after 24 hrs by MTT assay relative to control; conditions: read-out: GI
A549 [5] = assay: Growth inhibition of human A549 cells at 40 uM after 24 hrs by MTT assay relative to control; conditions: A549, 24 h, read-out: GI
A549 [6] = assay: Growth inhibition of human A549 cells at 20 uM after 24 hrs by MTT assay relative to control; conditions: A549, 24 h, read-out: GI
A549 [7] = assay: Growth inhibition of human A549 cells at 4 uM after 24 hrs by MTT assay relative to control; conditions: A549, 24 h, read-out: GI
A549 [8] = assay: Growth inhibition of human A549 cells at 2 uM after 24 hrs by MTT assay relative to control; conditions: A549, 24 h, read-out: GI

Structure (SMILES)	inhibition of growth at 40 µM (KB [1])	inhibition of growth at 4 µM (KB [2])	inhibition of growth at 20 µM (KB [3])	inhibition of growth at 2 µM (KB [4])	inhibition of growth at 40 µM (A549 [5])	inhibition of growth at 20 µM (A549 [6])	inhibition of growth at 4 µM (A549 [7])	inhibition of growth at 2 µM (A549 [8])
CCOP(=O)(OCC)C1C(C#N)=C(N)Oc2ccccc21 (stereo unspecified)	60.1%	15.2%	19.4%	0.12%	51%	18.4%	6.25%	4.12%
CC(C)OP(=O)(OC(C)C)C1C(C#N)=C(N)Oc2ccccc21 (stereo unspecified)	9.22%	5.21%	8.93%	2.5%	5.47%	3.5%	1.2%	0.82%
CCCCOP(=O)(OCCCC)C1C(C#N)=C(N)Oc2ccccc21 (stereo unspecified)	40.4%	6.8%	17.6%	6.45%	30.2%	21.7%	7.82%	3.51%
CCOP(=O)(OCC)C1C(C#N)=C(N)Oc2ccc(Br)cc21 (stereo unspecified)	81.8%	10%	12%	6.8%	60.8%	20.3%	9.05%	0.52%
CC(C)OP(=O)(OC(C)C)C1C(C#N)=C(N)Oc2ccc(Br)cc21 (stereo unspecified)	25.4%	15%	20.3%	9.45%	12.5%	10.5%	1.6%	0.32%
CCCCOP(=O)(OCCCC)C1C(C#N)=C(N)Oc2ccc(Br)cc21 (stereo unspecified)	45.2%	10.3%	11.5%	9.5%	26.7%	17.5%	8.94%	0.52%
CCOP(=O)(OCC)C1C(C#N)=C(N)Oc2ccc([N+](=O)[O-])cc21 (stereo unspecified)	8.29%	6.08%	6.18%	4.5%	3.9%	3.1%	2.89%	0.33%
CC(C)OP(=O)(OC(C)C)C1C(C#N)=C(N)Oc2ccc([N+](=O)[O-])cc21 (stereo unspecified)	23.3%	8.5%	16.2%	6.07%	26.9%	16.8%	6.25%	2.5%
CCCCOP(=O)(OCCCC)C1C(C#N)=C(N)Oc2ccc([N+](=O)[O-])cc21 (stereo unspecified)	33.8%	6%	14.5%	0.58%	15.8%	7.94%	8.21%	6.3%
CCOP(=O)(OCC)C1C(C#N)=C(N)Oc2c1cccc2C(C)(C)C (stereo unspecified)	27.3%	7.4%	11.5%	5.65%	14.9%	12%	4.34%	3.72%
CC(C)OP(=O)(OC(C)C)C1C(C#N)=C(N)Oc2c1cccc2C(C)(C)C (stereo unspecified)	20.6%	6.5%	12.5%	5.5%	14.9%	13.9%	8.23%	3.1%
CCCCOP(=O)(OCCCC)C1C(C#N)=C(N)Oc2c1cccc2C(C)(C)C (stereo unspecified)	19.8%	13.9%	14.5%	11.2%	13.7%	11.2%	10.5%	9.5%
